Where a SMILES comes first, the peptide text is derived from it. Bridges are numbered along the chain shown (N, C = ends). [ ]: non-standard residue; d: D form. The star is where a group is joined. Decanoyl(3R-OH) = CCCCCCC[C@@H](O)CC(=O)*; dDab = NCC[C@@H](N)C(=O)O; Dab = NCC[C@H](N)C(=O)O
How the values were obtained:
C. gattii MMRL 2651 = conditions: 72 h
Protocol: (§1) A broth microdilution assay was initially used to characterize the antifungal activity of the cyclic lipopeptides ([39], [40]). […] common pathogenic yeasts (C. albicans, C. glabrata, C. parapsilosis, C. neoformans, and C. gattii) and one pathogenic mold (A. fumigatus) were tested to determine the MIC for each compound (Table 1) using broth microdilution. […] The only structural difference between these molecules is the presence of a phenylalanine residue at position 6 in PMB; in PME a D-leucine is present at this location (Fig. 1).
(§2) Fungal strains were stored in 15% glycerol at −80°C until use. The fungal strains used were H99 (C. neoformans type strain) ([55]), cap59Δ (an acapsular H99 mutant) ([56]), ATCC 90113 (C. neoformans), MMRL 2651 (C. gattii), ATCC 90028 (Candida albicans), ATCC 90030 (Candida glabrata), ATCC 22019 (Candida parapsilosis), and ATCC MYA 3626 (Aspergillus fumigatus). Yeasts were cultured in liquid (1% yeast extract, 2% Bacto peptone, 2% glucose) or solid (additional 2% agar) yeast extract-peptone-dextrose (YPD) media at 30°C and maintained at 4°C for no longer than 2 weeks. A. fumigatus was prepared on potato dextrose medium at 30°C and maintained at 4°C for no longer than 2 weeks.
(§3) The MICs of the yeast strains for PMB, PME, and octapeptin C4 and its derivatives were determined in accordance with CLSI M27-A2 guidelines using YNB (Becton Dickinson, USA) medium supplemented with 10 mM ammonium sulfate and 2% glucose, a final inoculum concentration of 1.5 × 10^3 to 2.0 × 10^3 cells/ml, and incubation at 35°C for 72 h ([39]). […] The MICs for PMB, PME, and octapeptin C4 for A. fumigatus were determined in accordance with the CLSI M38-A2 guidelines ([40]) using synthetic RPMI 1640 medium (with glutamine, without bicarbonate and with phenol red; Life Technologies, USA). The final inoculum concentration was 0.4 × 10^4 to 5 × 10^4 cells/ml, with incubation at 35°C for 48 h. […] All assays were completed in triplicate. Fluconazole was used as a positive control where the MIC was determined at both 50% growth (in accordance with CLSI M27-A2 guidelines) and when there was a “no visible growth” reading.

C. neoformans ATCC 90113 = conditions: ATCC 90113, 72 h
Protocol: as §1, §2, §3

C. neoformans H99 = conditions: H99, 72 h
Protocol: as §1, §2, §3

[1] = tested on: C. neoformans H99 (cap59Δ); assay type: cell-based, Cryptococcus neoformans; conditions: Table 2; triplicate, values consistent across replicates
Description: The different susceptibility of C. neoformans and C. gattii to PMB compared to other pathogenic fungi such as C. albicans and A. fumigatus has been postulated to arise from differences in cell surface composition ([38]). One key difference is the presence of a negatively charged polysaccharide capsule in Cryptococcus spp. proposed to concentrate the cationic lipopeptides at the cell surface ([38]). To examine this potential interaction for the octapeptin series, a C. neoformans cap59Δ mutant strain deficient in the secretion of negatively charged glucuronoxylomannan (an α1–3-linked mannan containing β1,2 and β1,4 xylosyl substitutions, as well as β1,2-linked glucuronyl residues) ([41], [42]), was tested against octapeptin C4 in comparison to PMB.
as §2, §3

CCCCCCC[C@@H](O)CC(=O)N[C@H](CCN)C(=O)N[C@H]1CCNC(=O)[C@H](CC(C)C)NC(=O)[C@H](CCN)NC(=O)[C@H](CCN)NC(=O)[C@H](CC(C)C)NC(=O)[C@H](C)NC(=O)[C@H](CCN)NC1=O [Compound P4L] ({Decanoyl(3R-OH)}-[dDab][Dab][Dab]AL[Dab][Dab]L; lactam 2-C)
MICs against various Cryptococcus strains: MMRL 2651 (C. gattii MMRL 2651): 100 µg/mL | MICs against various Cryptococcus strains: ATCC 90113 (C. neoformans ATCC 90113): 25.0 µg/mL | MICs against various Cryptococcus strains: H99 (C. neoformans H99): 50.0 µg/mL | MICs against various Cryptococcus strains: H99 (cap59Δ) [1]: 100.0 µg/mL

CCCCCCC[C@@H](O)CC(=O)N[C@H](CCN)C(=O)N[C@H]1CCNC(=O)[C@H](CC(C)C)NC(=O)[C@H](CCN)NC(=O)[C@H](CCN)NC(=O)[C@H](C)NC(=O)[C@@H](Cc2ccccc2)NC(=O)[C@H](CCN)NC1=O [Compound P5] ({Decanoyl(3R-OH)}-[dDab][Dab][Dab][dF]A[Dab][Dab]L; lactam 2-C)
MICs against various Cryptococcus strains: MMRL 2651 (C. gattii MMRL 2651): 25.0 µg/mL | MICs against various Cryptococcus strains: ATCC 90113 (C. neoformans ATCC 90113): 12.5 µg/mL | MICs against various Cryptococcus strains: H99 (C. neoformans H99): 12.5 µg/mL | MICs against various Cryptococcus strains: H99 (cap59Δ) [1]: 50.0 µg/mL

CCCCCCC[C@@H](O)CC(=O)N[C@H](CCN)C(=O)N[C@H]1CCNC(=O)[C@H](CC(C)C)NC(=O)[C@H](CCN)NC(=O)[C@H](C)NC(=O)[C@H](CC(C)C)NC(=O)[C@@H](Cc2ccccc2)NC(=O)[C@H](CCN)NC1=O [Compound P6] ({Decanoyl(3R-OH)}-[dDab][Dab][Dab][dF]LA[Dab]L; lactam 2-C)
MICs against various Cryptococcus strains: MMRL 2651 (C. gattii MMRL 2651): 6.25 µg/mL | MICs against various Cryptococcus strains: ATCC 90113 (C. neoformans ATCC 90113): 6.25 µg/mL | MICs against various Cryptococcus strains: H99 (C. neoformans H99): 6.25 µg/mL | MICs against various Cryptococcus strains: H99 (cap59Δ) [1]: 12.5 µg/mL

Reference: PMC5786788, “Antimicrobial Octapeptin C4 Analogues Active against Cryptococcus Species” (Antimicrobial Agents and Chemotherapy, 2018)
